Results as given in patent US20260083701A1, “COMPOSITIONS, FORMULATIONS, AND METHODS FOR TREATMENT OF INFLAMMATORY CONDITIONS” (Oddity Labs, LLC, priority 2023, published 2026).

Legend:
IL-13 = assay: Functional Th2-blocking activity: IL-13 expression in primary human Th2 cells (intracellular flow cytometry); format: cell-based; conditions: for Expression of Cytokine following Stimulation (% X Positive among CD4+ T cells) IL-13: 3 days co-culture with compound, PMA/ionomycin stimulation 6 hours; for % Normalized Reduction of Cytokine Expression From Baseline in CD4+ T Cells IL-13: normalized against vehicle control (water), 3 days co-culture, PMA/ionomycin 6 hours
Text: (§1) To produce T helper 2 (Th2) cells, peripheral blood mononuclear cells (PBMCs) were harvested from healthy donor leukopaks using Ficoll gradients. Naive CD4+ T cells were further isolated, then activated using TransAct or Dynabeads (depending on the donor). CD4+ T cells were activated for two days in the presence of low dose IL-2 (30 IU/mL) in X-VIVO-15 media containing 5% human AB serum (activation cycle). On the second day, the media was exchanged and supplemented with interleukin 4 (IL-4) (20 ng/mL), anti-IFN-gamma antibody (1 μg/mL), and interleukin 2 (IL-2) (rest cycle). The cells were cultured for an additional five days then evaluated for Prostaglandin D2 receptor 2 (DP2 or CRTH2) expression and IL-4 and interleukin 13 (IL-13) expression following phorbol myristate acetate (PMA)/ionomycin stimulation. If the expression of CRTH2 was >50%, the cells were frozen and used in Th2 IL-4/IL-13 bioactivity assays. If the expression of CRTH2 <50%, then the cells were restimulated using TransAct (or Dynabeads) and maintained on similar cycles of activation (2 days) and rest (5 days), until the expression of CRTH2 exceeded 50%. Typically, no more than 4 cycles are needed before the Th2 cells may be harvested and frozen.
(§2) For testing the ability of a compound or salt of the present disclosure to reduce the expression of IL-4 and IL-13 was tested in primary human Th2 cells, the abovementioned cells were thawed, then cultured for one day in IL-2 containing media. The Th2 cells were treated with compounds added at varying concentrations for three days, after which, the cells were washed, and stimulated with PMA/ionomycin for 6 hrs prior to readabout via intracellular flow cytometry.
(§3) The ability of a compound or salt of the present disclosure to reduce the expression of IL-4 and IL-13 was tested in primary human Th2 cells. Naive, primary human CD4+ T cells were isolated from healthy donors and differentiated into Th2 cells using a combination of IL-4 cytokine and anti-IFN-gamma antibody, based on a modified protocol from Scott et al (Activation of Th2 cells downregulates CRTh2 through an NFAT1 mediated mechanism. PLoS One. 2018 Jul. 3; 13(7):e0199156). Th2 cells were CRTH2+ and expressed IL-4 and IL-13 following PMA/ionomycin stimulation. Prior to PMA/ionomycin stimulation, Th2 cells were co-cultured with a compound or salt of the present disclosure for 3 days and then stimulated for 6 hours. Intracellular flow cytometry was performed to investigate the expression of IL-4 and IL-13 among stimulated CD4+ Th2 cells. The compound or salt was evaluated across a 2-log concentration range. Th2 cells were cultured in X-VIVO-15 media with human AB serum and supplemented with low dose IL-2 (30 IU/mL). The antibody panel that was used is listed below. All antibodies were obtained from Biolegend.
(§4) Description of Calculation for: (1) Expression of Cytokine following Stimulation (% X Positive among CD4+ T cells), and (2) % Normalized Reduction of Cytokine Expression From Baseline in CD4+ T Cells
(§5) The expression of IL-4 and IL-13 was measured based on positive gated fractions among CD4+ Th2 cells. The number is expressed as a positive percentage, determined based on the fluorescence-minus-one (FMO) control. The max percent is 100%. The normalized reduction value uses the vehicle control (water) to normalize against using the following percent change formula. (Cmpd: compound)

IL-4 = assay: Functional Th2-blocking activity: IL-4 expression in primary human Th2 cells (intracellular flow cytometry); format: cell-based; conditions: primary human CD4+ Th2 cells; for % Normalized Reduction of Cytokine Expression From Baseline in CD4+ T Cells IL-4: normalized against vehicle control (water), 3 days co-culture, PMA/ionomycin 6 hours; for Expression of Cytokine following Stimulation (% X Positive among CD4+ T cells) IL-4: 3 days co-culture with compound, PMA/ionomycin stimulation 6 hours
Text: as §1, §2, §3, §4, §5

## O=C(C1CCc2cn[nH]c2C1)N1C[C@H]2CCC[C@@]2(c2nc(-c3ccccc3)no2)C1 (stereo in doubt) [IV-1, 6-[(3aS,6aS)-3a-(3-phenyl-1,2,4-oxadiazol-5-yl)-octahydrocyclopenta[c]pyrrole-2-carbonyl]-4,5,6,7-tetrahydro-1H-indazole]
IL-13
  Expression of Cytokine following Stimulation (% X Positive among CD4+ T cells) IL-13: C (C represents 14% to less than 18%)
  % Normalized Reduction of Cytokine Expression From Baseline in CD4+ T Cells IL-13: C (C represents 40% to less than 50%)
IL-4
  % Normalized Reduction of Cytokine Expression From Baseline in CD4+ T Cells IL-4: C (C represents 20% to less than 25%)
  Expression of Cytokine following Stimulation (% X Positive among CD4+ T cells) IL-4: B (B represents 30% to less than 35%)

## O=C1CCC(N2Cc3c(OCC(=O)N4CCCC(c5ccccn5)C4)cccc3C2=O)C(=O)N1 (stereo not shown) [Compound V-2, 3-(1-oxo-4-{2-oxo-2-[3-(pyridin-2-yl)piperidin-1-yl]ethoxy}-2,3-dihydro-1H-isoindol-2-yl)piperidine-2,6-dione]
IL-13
  Expression of Cytokine following Stimulation (% X Positive among CD4+ T cells) IL-13: B (B represents 10% to less than 14%)
  % Normalized Reduction of Cytokine Expression From Baseline in CD4+ T Cells IL-13: D (D represents 50% or greater)
IL-4
  % Normalized Reduction of Cytokine Expression From Baseline in CD4+ T Cells IL-4: D (D represents 25% or greater)
  Expression of Cytokine following Stimulation (% X Positive among CD4+ T cells) IL-4: A (A represents 0% to less than 30%)

## O=C(Nc1cccc(-c2ccc3nnc(-c4ccncc4)n3n2)c1)c1ccc(Cl)nc1 [III-2, 6-chloro-N-{3-[3-(pyridin-4-yl)-[1,2,4]triazolo[4,3-b]pyridazin-6-yl]phenyl}pyridine-3-carboxamide]
IL-13
  Expression of Cytokine following Stimulation (% X Positive among CD4+ T cells) IL-13: C (C represents 14% to less than 18%)
  % Normalized Reduction of Cytokine Expression From Baseline in CD4+ T Cells IL-13: C (C represents 40% to less than 50%)
IL-4
  % Normalized Reduction of Cytokine Expression From Baseline in CD4+ T Cells IL-4: C (C represents 20% to less than 25%)
  Expression of Cytokine following Stimulation (% X Positive among CD4+ T cells) IL-4: B (B represents 30% to less than 35%)

## CCNC(=O)COc1cccc(NC(=O)c2sccc2-n2c(C)ccc2C)c1 [III-3, 3-(2,5-dimethyl-1H-pyrrol-1-yl)-N-{3-[(ethylcarbamoyl)methoxy]phenyl} thiophene-2-carboxamide]
IL-13
  Expression of Cytokine following Stimulation (% X Positive among CD4+ T cells) IL-13: B (B represents 10% to less than 14%)
  % Normalized Reduction of Cytokine Expression From Baseline in CD4+ T Cells IL-13: D (D represents 50% or greater)
IL-4
  % Normalized Reduction of Cytokine Expression From Baseline in CD4+ T Cells IL-4: B (B represents 15% to less than 20%)
  Expression of Cytokine following Stimulation (% X Positive among CD4+ T cells) IL-4: B (B represents 30% to less than 35%)

## Cc1cc(NC(=O)CC23CC4CC(CC(C4)C2)C3)cc(-c2nc3ncccc3o2)c1O [III-4, 2-(1-adamantyl)-N-(4-hydroxy-3-methy1-5-[1,3]oxazolo[4,5-b]pyridin-2-ylphenyl)acetamide]
IL-13
  Expression of Cytokine following Stimulation (% X Positive among CD4+ T cells) IL-13: C (C represents 14% to less than 18%)
  % Normalized Reduction of Cytokine Expression From Baseline in CD4+ T Cells IL-13: B (B represents 30% to less than 40%)
IL-4
  % Normalized Reduction of Cytokine Expression From Baseline in CD4+ T Cells IL-4: C (C represents 20% to less than 25%)
  Expression of Cytokine following Stimulation (% X Positive among CD4+ T cells) IL-4: B (B represents 30% to less than 35%)

## O=C(Cc1c[nH]c2ccccc12)Nc1cccc(-c2ccc3nnc(-c4cccnc4)n3n2)c1 [III-5, 2-(1H-indol-3-yl)-N-{3-[3-(pyridin-3-yl)-[1,2,4]triazolo[4,3-b]pyridazin-6-yl]phenyl}acetamide]
IL-13
  Expression of Cytokine following Stimulation (% X Positive among CD4+ T cells) IL-13: B (B represents 10% to less than 14%)
  % Normalized Reduction of Cytokine Expression From Baseline in CD4+ T Cells IL-13: D (D represents 50% or greater)
IL-4
  % Normalized Reduction of Cytokine Expression From Baseline in CD4+ T Cells IL-4: A (A represents 0% to less than 15%)
  Expression of Cytokine following Stimulation (% X Positive among CD4+ T cells) IL-4: C (C represents 35% to less than 40%)

## O=C(Cc1ncc(C(F)(F)F)cc1Cl)Nc1ccc(N2CCOCC2)cc1 [III-6, 2-[3-chloro-5-(trifluoromethyl)pyridin-2-yl]-N-[4-(morpholin-4-yl)phenyl]acetamide]
IL-13
  Expression of Cytokine following Stimulation (% X Positive among CD4+ T cells) IL-13: C (C represents 14% to less than 18%)
  % Normalized Reduction of Cytokine Expression From Baseline in CD4+ T Cells IL-13: B (B represents 30% to less than 40%)
IL-4
  % Normalized Reduction of Cytokine Expression From Baseline in CD4+ T Cells IL-4: B (B represents 15% to less than 20%)
  Expression of Cytokine following Stimulation (% X Positive among CD4+ T cells) IL-4: B (B represents 30% to less than 35%)

## O=C(Nc1cccc(NC(=O)c2ccc3[nH]c4c(c3c2)CCCC4)c1)c1ccccc1 [III-7, N-(3-benzamidophenyl)-2,3,4,9-tetrahydro-1H-carbazole-6-carboxamide]
IL-13
  Expression of Cytokine following Stimulation (% X Positive among CD4+ T cells) IL-13: B (B represents 10% to less than 14%)
  % Normalized Reduction of Cytokine Expression From Baseline in CD4+ T Cells IL-13: D (D represents 50% or greater)
IL-4
  % Normalized Reduction of Cytokine Expression From Baseline in CD4+ T Cells IL-4: D (D represents 25% or greater)
  Expression of Cytokine following Stimulation (% X Positive among CD4+ T cells) IL-4: A (A represents 0% to less than 30%)

## Cc1nnc(-c2cccc(-c3noc(-c4c[nH]c(=O)c5ccccc45)n3)c2)[nH]1 [IV-2, 4-{3-[3-(5-methyl-4H-1,2,4-triazol-3-yl)phenyl]-1,2,4-oxadiazol-5-yl}-1,2-dihydroisoquinolin-1-one]
IL-13
  Expression of Cytokine following Stimulation (% X Positive among CD4+ T cells) IL-13: B (B represents 10% to less than 14%)
  % Normalized Reduction of Cytokine Expression From Baseline in CD4+ T Cells IL-13: D (D represents 50% or greater)
IL-4
  % Normalized Reduction of Cytokine Expression From Baseline in CD4+ T Cells IL-4: D (D represents 25% or greater)
  Expression of Cytokine following Stimulation (% X Positive among CD4+ T cells) IL-4: B (B represents 30% to less than 35%)

## O=c1c2ccccc2c(-c2nc(-c3ccccc3Cl)no2)nn1-c1ccccc1 [IV-3, 4-[3-(2-chlorophenyl)-1,2,4-oxadiazol-5-yl]-2-phenyl-1,2-dihydrophthalazin-1-one]
IL-13
  Expression of Cytokine following Stimulation (% X Positive among CD4+ T cells) IL-13: C (C represents 14% to less than 18%)
  % Normalized Reduction of Cytokine Expression From Baseline in CD4+ T Cells IL-13: B (B represents 30% to less than 40%)
IL-4
  % Normalized Reduction of Cytokine Expression From Baseline in CD4+ T Cells IL-4: C (C represents 20% to less than 25%)
  Expression of Cytokine following Stimulation (% X Positive among CD4+ T cells) IL-4: B (B represents 30% to less than 35%)

## O=C(NC1CCN(C(=O)c2cn(-c3ccc(F)cc3)nn2)CC1)c1cc2ccccc2[nH]1 [VI-1, N-{1-[1-(4-fluorophenyl)-1H-1,2,3-triazole-4-carbonyl]piperidin-4-yl}-1H-indole-2-carboxamide]
IL-13
  Expression of Cytokine following Stimulation (% X Positive among CD4+ T cells) IL-13: C (C represents 14% to less than 18%)
  % Normalized Reduction of Cytokine Expression From Baseline in CD4+ T Cells IL-13: B (B represents 30% to less than 40%)
IL-4
  % Normalized Reduction of Cytokine Expression From Baseline in CD4+ T Cells IL-4: D (D represents 25% or greater)
  Expression of Cytokine following Stimulation (% X Positive among CD4+ T cells) IL-4: B (B represents 30% to less than 35%)

## O=C(NCCn1ccc2ccccc21)NC1CC(=O)N(c2cccc(F)c2)C1 (stereo not shown) [VI-2, 3-[1-(3-fluorophenyl)-5-oxopyrrolidin-3-y1]-1-[2-(1H-indol-1-yl)ethyl]urea]
IL-13
  Expression of Cytokine following Stimulation (% X Positive among CD4+ T cells) IL-13: D (D represents 18% or greater)
  % Normalized Reduction of Cytokine Expression From Baseline in CD4+ T Cells IL-13: A (A represents 0% to less than 30%)
IL-4
  % Normalized Reduction of Cytokine Expression From Baseline in CD4+ T Cells IL-4: D (D represents 25% or greater)
  Expression of Cytokine following Stimulation (% X Positive among CD4+ T cells) IL-4: B (B represents 30% to less than 35%)

## COC(=O)c1sccc1-n1c(C)ccc1C [VI-3, methyl 3-(2,5-dimethyl-1H-pyrrol-1-yl)thiophene-2-carboxylate]
IL-13
  Expression of Cytokine following Stimulation (% X Positive among CD4+ T cells) IL-13: C (C represents 14% to less than 18%)
  % Normalized Reduction of Cytokine Expression From Baseline in CD4+ T Cells IL-13: C (C represents 40% to less than 50%)
IL-4
  % Normalized Reduction of Cytokine Expression From Baseline in CD4+ T Cells IL-4: B (B represents 15% to less than 20%)
  Expression of Cytokine following Stimulation (% X Positive among CD4+ T cells) IL-4: B (B represents 30% to less than 35%)
